According to patent US20230340012A1, “NATURAL AND SYNTHETIC COMPOUNDS FOR TREATING CANCER AND OTHER DISEASES” (PACIFIC ARROW LIMITED, priority 2009, published 2023):
“And” between values parts separate entries of the source, which are not always exact repeats. Equal values may be shown once.

Tests used:
[1] = test system: Jurkat cells; experiment: Agonist activity of anti-DR5 antibody with Tig-R in Jurkat cells, MTT; format: cell-based, human
Procedure: Experiment 44: Agonist activity of […] anti-DR5 antibody with Tig-R in Jurkat cells Jurkat cells (Human Acute T-cell leukemia) were cultured in RPMI1640 medium with 10% FBS, antibiotics (Pen Strep) and L-Glutamine in a 37C, 5% CO2 incubator. Cells in log-growth phase (about 0.5 million cells per ml) were treated with antibody (AB) or/and Tig-R. The antibody is Human TRAIL R2/TNFRSF 10B Antibody from R&D (MAB631-100). Treatment time is 2 days. Inhibition of cell growth after treatment was determined by MTT assay.
Conditions for combination studies: Tig-R (2.5 ug/ml) was added together with AB (2-8 ng/ml). Cells

[2] = test system: HepG2 cells; experiment: Combined effect of anti-DR5 and Tig-R in HepG2 cells, MTT; format: cell-based, human
Procedure: Cells Culture: HepG2 cells (liver cancer cells) were cultured in DMEM medium supplemented with 10% FBS, antibiotics (Pen Strep) and L-Glutamine. Cells were incubated in a 37° C., 5% CO2 incubator.
Antibody: Antibody against Human TRAIL R2/TNFRSF 10B, (from R&D Systems cat# MAB631-100).
Drug: Tig-R (5 and 7.5 ug/ml in culture medium).
Treatment. Cells in log-growth phase were used. Cells were plated in 96-welled plate with 10 K/well over night before treatment.
Antibodies are serially diluted with medium (started from 1 ug/ml) before adding to cell culture and incubated for 2 days.
For combination studies, Tig-R (5 ug/ml or 7.5 ug/ml) were added together with antibody. After a treatment for 2 days, the quantity of live cells is determined with MTT assay*. The percentage of cell growth with drugs was determined by comparing to those of no-drug (DMSO) control.
MTT assay. Cell growth activity was determined by MTT assay (Carmichael et al.,). […] The formation of formazan was dissolved with DMSO and the O.D. at 490 nm was measured by an ELISA reader. The MTT level of cells before drug-treatment was also measured (T0). The % cell-growth (%G) is calculated as: %G = (TD-T0 / TC-T0) × 100 (1) where TC or TD represent O.D. readings of control or drug-treated cells.
When T0 > TD, then the negative growth (cytotoxicity) is expressed as - % of the control and is calculated as: - %G = (TD-T0 / T0) × 100.

[3] = test system: DR5 (TNFRSF10B) in HepG2 cells; experiment: DR5 Western blot, HepG2 cells; format: cell-based, human; details: 2 days
Procedure: A. Cells and drug-treatment: HepG2 cells (liver cancer cells), CAPAN cells, ES2 cells (Ovary cell) were cultured in DMEM medium with 10% FBS, antibiotics (Pen Strep) and L-Glutamine in a 37° C., 5% CO2 incubator. Cells in log-growth phase were treated with Tig-R (10 ug/ml), Tig-S (4 ug/ml) or DMSO (as control) for 2 days.
B. Total cell protein extraction: Drug-treated cells were collected, pelleted with centrifugation. The cell pellet was extracted with SDS-Sample buffer (containing PMSF and protease inhibitors cocktail). About 0.1 gram cell pellet was extracted in 1 ml of extraction buffer. The cell extract was then incubated in boiling water bath for 6 minutes with occasionally vortexing. The protein extract was immediately frozen in -80° C. before used.
C. SDS gel electrophoresis: 10-20 ug of protein sample was loaded into each lane of a 10% SDS gel. Electrophoresis was conducted with 100 volt constant for 2 hours.
D. Western Blot: Separated proteins from SDS gel were transferred to a nitrocellulose membrane, which was blocked with 5% non-fat dry milk. The membrane was then exposed to 1st antibody (anti-TNFRSF10B) over night, then washed. The membrane was then incubated in 2nd antibody (anti-mouse-AP conjugated) for an hour, then washed. The immuno-bands were developed with BCIP/NBT substrate.
E. Another SDS gel with same sample loading was stained with Coomassie Brilliant Blue (CBB) for protein staining.
F. Determination of Western blot band intensity: The band-images of Western blot were captured with a digital camera and the intensity of bands was determined using “Image J” software.

[4] = test system: DR5 (TNFRSF10B) in ES2 cells; experiment: Induction of DR5 in ES2 cells, Western blot; format: cell-based, human; details: experiment 1, column head R 7.5, 2 days
[5] = test system: Human leukemia cells K562; experiment: Apoptosis in K562 cells, Annexin V / propidium iodide flow cytometry; format: cell-based; details: for apoptotic cells population: two days, background 10-15%
Procedure: • 1. Cells: Human leukemia cells K562 cultured in RPMI1640 medium. • 2. Drug: Tig-S (1000x stock solution in DMSO). • 3. Start cells concentration: 500000/ml. • 4. Cells were cultured with drug (0 - 20 ug/ml) for Two days. • 5. Collect cells from culture (1 - 4 million) by centrifugation (136xg for 5 min. remove supernatant). • 6. Wash cells with 1 ml of cold PBS, collect cells by centrifugation (136xg, 5 min, remove supernatant). • 7. Re-suspend cells in 200 ul Binding buffer (10 mM HEPES, 140 mM NaCl, 2.5 mM CaCl2, pH 7.4). • 8. Stained cells by adding 10 ul Annexin V (Alexa Fluor 488, Invitrogen cat# A13201), and 2 ul Propidium iodide (1 mg/ml in water) to cell suspension. Mix. • 9. Sit at Room temperature for 15 min. • 10. Wash cells with 1 ml binding buffer. Collect cells by centrifugation. • 11. Re-suspend cells with in 1 ml of binding buffer for analysis by flow cytometry. • 12. Flow Cytometry analysis was performed in Baylor Core Facility with a LSRII instrument. • 13. Analysis: Control cells stained with PI or Annexin V-488 (Annexin V-FITC) alone were served as references. About 50000 cells were analyzed for each sample. • 14.Cell distribution in following groups: live, early apoptosis, late-apoptosis, total apoptosis and dead cells were determined. • 15.

[6] = HepG2 cells, Tig-R 10 ug/ml, single experiments 1-4

24,28-O-Tigloyl-3β,16α, 21β, 22a, 24β, 28-hexahydroxyolean-12-ene [Tig-R]
combined effect with anti-DR5 antibody ([1]; Jurkat, Tig-R 2.5 ug/ml): synergistic | increase of inhibition with Tig-R ([1]; Tig-R 2.5 ug/ml added to antibody): about 20% | inhibition of cell growth ([1]; Tig-R 2.5 ug/ml alone, 2 days): 8% | combined effect with anti-DR5 antibody ([2]; HepG2, Tig-R 5 or 7.5 ug/ml): synergistic | inhibition of HepG2 cells' growth ([2]; Tig-R alone 5 ug/ml, 2 days): 15-20% | increase of DR5 over DMSO control cells ([3]; HepG2, Tig-R 10 ug/ml): 69% | DR5 band intensity, % of DMSO, Average (%) ([3]; HepG2 cells, Tig-R 10 ug/ml, average of 4 experiments, SD 37): 169% | DR5 Western blot band intensity (Image J) [3, 6]: 31752 and 19291 and 22435 and 33645 | DR5 band intensity, % of DMSO [3, 6]: 194% and 122% and 202% and 156% | DR5 Western blot band intensity (Image J) [4]: 29902 | DR5 band intensity, % of DMSO [4]: 157%

CC=C(C)C(=O)OCC1(C)C(O)CCC2(C)C1CCC1(C)C2CC=C2C3CC(C)(C)C(OC(=O)C(C)=CC)C(O)C3(CO)C(O)CC21C (centres unmarked) [Tig-S]
apoptotic cells population ([5]; 2.5 ug/ml): 15% | apoptotic cells population ([5]; 20 ug/ml): 27% | mechanism of cell death ([5]; K562): induces cell-death by the apoptosis mechanism
